Data as given in patent US8519110B2, “mRNA cap analogs” (Board of Supervisors of Louisiana State University And …, priority 2008, dated 2013).
Read-outs that look alike come from different tables or passages of the source.

Columns and labels:
[1] = biological target: cap-dependent translation of luciferase mRNA in reticulocyte lysate; experiment: Inhibition of cap-dependent translation in vitro by free cap analogs; assay type: biochemical, rabbit
Method: In vitro translation reactions were performed in 12.5 μl for 60 min at 30° C. under conditions favorable for cap-dependent translation. In some cases, the reaction mixture was incubated for 60 min at 30° C. prior to adding the dinucleotide cap analog (inhibitor) and m2^7,3′-OGppG-capped luciferase mRNA to start translation. In other cases, to analyze biological stability, the cap analog was incubated in the translation mixture for 60 min at 30° C. prior to adding the luciferase mRNA to start translation. A typical reaction mixture contained 56% reticulocyte lysate, the 20 “standard” amino acids (0.01 mM each), MgCl2 (1.2 mM), potassium acetate (170 mM), RiboLock Ribonuclease Inhibitor (0.32 U/μl), cap analog solution ( 1/10 of total reaction volume), and m2^7,3′-OGpppG-capped luciferase RNA. […] Reactions were performed with cap analog concentrations ranging from 0.12 to 100 μM. Luciferase activity was measured in a luminometer. […] The program OriginPro8 (OriginLab) was used for curve fitting with the equation qLUC=Z/(1+I/IC50)+N, where qLUC is the activity of luciferase synthesized in the presence of cap analog, Z is the activity of luciferase synthesized in the absence of cap analog, N is the activity of luciferase synthesized in a cap-independent manner, and I is the cap analog concentration.
Two type of experiments were carried out. In one set of experiments (condition A), a cap analog was added to the translation system together with luciferase mRNA. In the other set of experiments (condition B), the cap analog was incubated in the translation system for 60 min before addition of mRNA. […] There was a correlation between the resistance to hydrolysis by DcpS and the stability of analogs in the translation system.

[2] = test system: rabbit reticulocyte lysate system; experiment: In vitro translation efficiency of capped luciferase mRNA with 31-base poly(A) tail, method II transcripts; assay type: biochemical; conditions: for In vitro translational efficiency (method II): Table 3, relative to m^7GpppG-capped mRNA = 1.0; for Translation efficiency in comparison to m^7GpppG-LUC-(A)31 mRNA, Experiment No. 1: experiment 1; for Translation efficiency in comparison to m^7GpppG-LUC-(A)31 mRNA, Experiment No. 2: experiment 2; for Translation efficiency in comparison to m^7GpppG-LUC-(A)31 mRNA, Experiment No. 3: experiment 3; for Translation efficiency in comparison to m^7GpppG-LUC-(A)31 mRNA, Experiment No. 4: experiment 4; for Translation efficiency in comparison to m^7GpppG-LUC-(A)31 mRNA, Mean: mean of experiments; for Translation efficiency in comparison to m^7GpppG-LUC-(A)31 mRNA, Experiment No. 5: experiment 5
Procedure, shortened: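 Cap-analog-primed SP6 transcripts (β-globin 5′-UTR, firefly luciferase, 31-A tail; 0.5 mM cap analog, 0.1 mM GTP) were translated in nuclease-treated rabbit reticulocyte lysate for 60 min at 30° C at 0.25–4 μg/ml mRNA. Efficiency is the slope of luciferase activity versus mRNA concentration, relative to m^7GpppG-capped mRNA (1.0).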

[3] = biological target: T1, Human DcpS (Homo sapiens, UniProt Q96C86); experiment: Assay of susceptibility to DcpS (RP HPLC); assay type: biochemical
T1 construct: made in house; host or cells: Escherichia coli
T1 sequence (Q96C86 1-337): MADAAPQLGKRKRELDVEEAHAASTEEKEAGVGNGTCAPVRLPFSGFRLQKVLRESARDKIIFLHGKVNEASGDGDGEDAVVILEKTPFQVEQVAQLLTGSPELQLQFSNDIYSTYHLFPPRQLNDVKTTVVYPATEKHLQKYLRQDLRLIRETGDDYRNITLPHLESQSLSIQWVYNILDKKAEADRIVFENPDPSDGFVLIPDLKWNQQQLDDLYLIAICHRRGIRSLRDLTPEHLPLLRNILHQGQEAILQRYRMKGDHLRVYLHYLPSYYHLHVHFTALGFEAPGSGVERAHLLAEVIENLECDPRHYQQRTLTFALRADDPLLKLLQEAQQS
Procedure, shortened: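 E. coli-expressed human DcpS reacted with 40 μM cap analog at 30° C in 50 mM Tris-HCl pH 7.9, 20 mM MgCl2, 60 mM (NH4)2SO4. Samples taken at 10, 30, 60 and 120 min, heat-inactivated, and analysed by RP HPLC (methanol gradient in 0.1 M KH2PO4 pH 6.0).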

[4] = Table 3, cap analog added together with mRNA, read-out: Inhibition of in vitro translation (IC50), condition A
[5] = Table 3, cap analog preincubated 60 min in lysate, read-out: Inhibition of in vitro translation (IC50), condition B
[6] = cap analog added together with luciferase mRNA, read-out: Inhibition of in vitro translation (IC50), condition A
[7] = cap analog incubated in translation system 60 min before addition of mRNA, read-out: Inhibition of in vitro translation (IC50), condition B
[8] = 40 μM cap analog, 30° C., up to 120 min

Row | Molecule | IC50 [1, 4] [µM] | IC50 [1, 5] [µM] | In vitro translational efficiency (method II) [2] | Translation efficiency in comparison to m^7GpppG-LUC-(A)31 mRNA, Experiment No. 1 [2] | Translation efficiency in comparison to m^7GpppG-LUC-(A)31 mRNA, Experiment No. 2 [2] | Translation efficiency in comparison to m^7GpppG-LUC-(A)31 mRNA, Experiment No. 3 [2] | Translation efficiency in comparison to m^7GpppG-LUC-(A)31 mRNA, Experiment No. 4 [2] | Translation efficiency in comparison to m^7GpppG-LUC-(A)31 mRNA, Mean [2] | Susceptibility to DcpS ([3]; Table 3) | IC50 [1, 6] [µM] | IC50 [1, 7] [µM] | Translation efficiency in comparison to m^7GpppG-LUC-(A)31 mRNA, Experiment No. 5 [2] | Susceptibility to DcpS [3, 8]
1 | CO[C@@H]1[C@H](O)[C@@H](COP(=O)(O)OP(O)(=[Se])OP(=O)(O)OC[C@H]2O[C@@H](n3cnc4c(=O)[nH]c(N)nc43)[C@H](O)[C@@H]2O)O[C@H]1n1c[n+](C)c2c(=O)[nH]c(N)nc21 (single isomer, unassigned) [m2^7,2′-OGppSepG (D1), m2^7,2′-OGppSepG] | 8.4 ± 1.4 | 14.7 ± 1.6 | 2.24 ± 0.28 | 2.05 | 2.09 | 2.16 | 2.65 | 2.24 | hydrolyzed |  |  |  | 
2 | CO[C@@H]1[C@H](O)[C@@H](COP(=O)(O)OP(O)(=[Se])OP(=O)(O)OC[C@H]2O[C@@H](n3cnc4c(=O)[nH]c(N)nc43)[C@H](O)[C@@H]2O)O[C@H]1n1c[n+](C)c2c(=O)[nH]c(N)nc21 (single isomer, unassigned) [m2^7,2′-OGppSepG (D2), m2^7,2′-OGppSepG] | 3.9 ± 0.5 | 11.4 ± 7.2 | 2.31 ± 0.22 | 2.53 | 2.31 | 2.09 |  | 2.31 | hydrolyzed |  |  |  | 
3 | Cn1c[n+]([C@@H]2O[C@H](COP(=O)(O)OP(=O)(O)OP(=O)(O)OC[C@H]3O[C@@H](n4cnc5c(=O)[nH]c(N)nc54)[C@H](O)[C@@H]3O)[C@@H](O)[C@H]2O)c2nc(N)[nH]c(=O)c21 [m^7GpppG, m^7G(5′)ppp(5′)G, reference compound] | 8.3 ± 0.2 | 35.1 ± 10.8 | 1.00 | 1.00 | 1.00 | 1.00 | 1.00 | 1.00 | hydrolyzed | 8.3 ± 0.2 | 35.1 ± 10.8 | 1.00 | hydrolyzed
4 | m^7GppBH3pm^7G |  |  |  |  |  |  |  | 3.56 |  | 3 ± 0.1 | 3 ± 0.2 | 3.56 | resistant
